From PubChem BioAssay AID1645871

Conditions: pampa; pH 5.0; 30.0 min; 50.0 µM

Papp	SMILES
758 ×10⁻⁶ cm/s	COc1ccccc1N1CCN(CCN(C(=O)c2ccc(I)cc2)c2ccccn2)CC1
16.2 ×10⁻⁶ cm/s	CCOC(=O)c1ccc(NC(=O)N2Cc3[nH]cnc3C[C@H]2c2nc(C(C)C)no2)cc1
831 ×10⁻⁶ cm/s	CCOc1ccc(NC(=O)CC2C(=O)N(c3ccc(F)cc3)C(=O)N2CCc2sccc2C)cc1 (stereo unspecified)
582 ×10⁻⁶ cm/s	CCOc1ccc(CNC(=O)CCCn2nc(C)c3c(C)n(-c4ccc(C)cc4)nc3c2=O)cc1
142 ×10⁻⁶ cm/s	CCOC(=O)Nc1ccc(NCc2ccc(F)cc2)nc1N
45.4 ×10⁻⁶ cm/s	COc1ccc(-c2cc(-c3cccc(NC(C)=O)c3)cn3cncc23)cn1
817 ×10⁻⁶ cm/s	O=C(Nc1ccc2c(N3CCCCC3)ncnc2c1)c1cc(F)cc(F)c1
> 1000 ×10⁻⁶ cm/s	COc1ccc(NC(=O)c2ccc[nH]2)cc1S(=O)(=O)Nc1ccc(Br)cc1
> 1000 ×10⁻⁶ cm/s	COc1ccc(C(=O)N[C@@H]2CCC[C@@H]2C(=O)N2CCC(Cc3ccccc3)CC2)cc1
4.13 ×10⁻⁶ cm/s	Cc1ccnc(NC(=S)N2CCN(c3ccc(N)cc3)CC2)c1
645 ×10⁻⁶ cm/s	CNc1oc(-c2cccc3ccccc23)nc1C#N
583 ×10⁻⁶ cm/s	Cc1ccc(-n2c(=O)c3oc4ccccc4c3n(CC(=O)Nc3ccc(F)c(Cl)c3)c2=O)cc1C
171 ×10⁻⁶ cm/s	CN(C)c1ccc(-c2cc[nH]c(=O)c2N)cc1
46.2 ×10⁻⁶ cm/s	Cn1ncnc1[C@H]1c2n[nH]c(=O)c3cc(F)cc(c23)N[C@@H]1c1ccc(F)cc1
5.85 ×10⁻⁶ cm/s	C[C@@H](O)CNC(C)(C)CC(=O)N[C@@H]1CCc2ccccc2N(Cc2ccc(-c3ccccc3-c3nn[nH]n3)cc2)C1=O
844 ×10⁻⁶ cm/s	CC(C)c1nc(CN(C)C(=O)N[C@H](C(=O)N[C@@H](Cc2ccccc2)C[C@H](O)[C@H](Cc2ccccc2)NC(=O)OCc2cncs2)C(C)C)cs1
71.4 ×10⁻⁶ cm/s	COc1ccc(-n2nc(C3CCCN(C(=O)Cc4ccccn4)C3)[nH]c2=O)cc1 (stereo unspecified)
696 ×10⁻⁶ cm/s	CCS(=O)(=O)c1ncc(N(Cc2ccc(F)cc2)Cc2ccco2)c(C(=O)Nc2cc(C)ccc2C)n1
69.7 ×10⁻⁶ cm/s	CS(=O)(=O)CCNCc1ccc(-c2ccc3ncnc(Nc4ccc(OCc5cccc(F)c5)c(Cl)c4)c3c2)o1
237 ×10⁻⁶ cm/s	COc1ccccc1CNC(=O)CCCn1nc(C)c2c(C)n(-c3ccc(C)cc3)nc2c1=O
322 ×10⁻⁶ cm/s	Cc1nc([C@](C)(O)CO)sc1-c1cnc(N)c(O[C@H](C)c2cc(F)ccc2-n2nccn2)c1
